Data from the supplement of paper PMC8837787.
Where a name gives a salt, the structure may show the parent alone.

system: Saccharomyces cerevisiae ABC16-Green Monster; experiment: not given; settings: 18 h; 30 °C; YPD
Description: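 Growth inhibition of the drug-sensitive S. cerevisiae ABC16-Green Monster strain (16 ABC transporters deleted) in YPD at 30 °C for 18 h. […] dilution series […] in biological replicates; IC50 from OD600 (18 h minus 0 h) fitted by variable-slope nonlinear regression in GraphPad Prism. Library compounds were first screened at 150 µM, and only those with at least 70% inhibition went to dose-response; the rest are marked inactive.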

SMILES | IC50 growth inhibition [µM]
COc1cc2c(c(OC)c1OC)-c1ccc(OC)c(=O)cc1C(NC(C)=O)CC2 (centres undefined) [Colchicine] | > 75
COc1ccc(C2Sc3ccccc3N=C3C2=C(O)c2ccccc23)cc1 (centres undefined) [GNF-Pf-5129] | 3.97
CCOc1ccc(Oc2ccc(S(=O)(=O)NC(C)c3ccncc3)cc2)cc1 (centres undefined) | 51.1
Cc1ccc2c(c1C)NC(=O)C21NN=C(c2ccccc2)S1 (centres undefined) | 10.2
O=C1NC(=O)C(c2cnc3ccccn23)=C1c1cn2c3c(cc(F)cc13)CN(C(=O)N1CCCCC1)CC2 | > 75
COC=C(C(=O)OC)c1ccccc1Oc1cc(Oc2ccccc2C#N)ncn1 [Azoxystrobin] | > 75
Cc1cc(C)nc(-n2nc(C)cc2Nc2ccccc2)n1 | 42.1
OC(Cn1cncn1)(Cn1cncn1)c1ccc(F)cc1F [Fluconazole] | 3.14
CC1(C)C=Cc2cc(C(=N)NOC(=O)c3ccccc3)ccc2O1 | 4.33
CCCC(=O)NC(c1ccc(Cl)cc1)c1ccc2cccnc2c1O (centres undefined) [GNF-Pf-3257] | 55.9
CNC(=O)c1ccccc1Nc1nc(Nc2ccc3c(c2OC)CCC[C@H](N2CCN(CCO)CC2)C3)ncc1Cl | 37.7
N=C(N)c1ccc(OCCCCCOc2ccc(C(=N)N)cc2)cc1 | 83.8
Cc1cc(C(C)(C)CC(C)(C)C)ccc1OCCOCC[N+](C)(C)Cc1ccccc1 [KAAA726] | 3.74
O=C(Nc1ccc(N2CCNCC2)cc1)c1ccn2ncc(-c3cccc(Cl)c3)c2n1 | 8
COc1ccc(-c2nnc3ccc(-c4cccc(C(C)C)c4)cn23)cc1OC | 52.3
Cc1ccc(-c2nc(CN(Cc3ccccn3)C(C)C)cs2)o1 | 12
O=C(NC1CC1)c1ccc(N2CCOc3ccc(Cl)cc32)s1 | 32.6
C=CC1(C)CC(=O)C2(O)C(C)(O1)C(OC(C)=O)C(O)C1C(C)(C)CCC(O)C12C (centres undefined) [Forskolin] | > 75
CCOC(=O)c1c(NC(=O)CNCc2ccccn2)sc(CC)c1C | 47.8
CN(C)c1ccc(C(O)(c2ccc(N(C)C)cc2)c2ccc(N(C)C)cc2)cc1 | 0.317
O=C(Nc1ccc(Cl)c(Cl)c1)Nc1ccc(Cl)c(Cl)c1 | 0.32
NC(=O)[C@@H](CC1CC1)[C@@H](CCC(F)(F)F)C(=O)N[C@H]1N=C(c2ccccc2)c2cccc(F)c2NC1=O | 2.06
OCCN1CCN(CCCN2c3ccccc3Sc3ccc(C(F)(F)F)cc32)CC1 [Fluphenazine] | 30.1
Cc1cc(C(=O)Cn2c(CO)nc3ccccc32)c(C)n1-c1ccccc1 | 62.4

SMILES | IC50 growth inhibition [µM]
CC1CCCC=CC2CC(O)CC2C(O)C=CC(=O)O1 (centres undefined) [Brefeldin A] | 31.9
CC(C)(C)C1CCc2[nH]c3ccccc3c(=O)c2C1 (centres undefined) [GNF-Pf-3815] | 60.3
COC(=O)C1=C(C)NC(C)=C(C(=O)OC(C)C)C1c1cccc2nonc12 (centres undefined) | 65.4
CC1C=CC=CCCC=CC=CC=CC=CC(OC2OC(C)C(O)C(N)C2O)CC2OC(O)(CC(O)C(O)CCC(O)CC(O)CC(O)CC(=O)OC(C)C(C)C1O)CC(O)C2C(=O)O (centres undefined) [Nystatin] | > 75
CCC1(O)CC2CN(CCc3c([nH]c4ccccc34)C(C(=O)OC)(c3cc4c(cc3OC)N(C)C3C(O)(C(=O)OC)C(OC(C)=O)C5(CC)C=CCN6CCC43C65)C2)C1 (centres undefined) [Vinblastine] | > 75
COc1ccc(CN2CCN(C(c3ccc(F)cc3)c3ccc(F)cc3)CC2)c(OC)c1OC [Lomerizine] | 14.2
CC(CN1c2ccccc2Sc2ccccc21)N(C)C (centres undefined) [Promethazine] | 98.9
CCS(=O)(=O)N1CCN(c2ccc(Nc3ncc(C(N)=O)c(NC4CC4)n3)cc2)CC1 [Cerdulatinib] | 8.06
Cn1ncc2c(N3CCOCC3)nc(NCCc3c[nH]c4ccccc34)nc21 | 69.3
COc1ccc2cc(CN(C)CC(=O)Nc3sccc3C(N)=O)ccc2c1 | 60.6
CON=C(C(=O)OC)c1ccccc1CON=C(C)c1cccc(C(F)(F)F)c1 [Trifloxystrobin] | > 75
CC1CC(C)C(=O)C(C(O)CC2CC(=O)NC(=O)C2)C1 (centres undefined) [Cycloheximide] | 0.0378
CNc1ncc2cc(-c3cc(NC(=O)NCCC(C)(C)C)c(F)cc3C)c(C)nc2n1 [DP-4978] | > 150
Cc1ccc(NC(=O)c2ccc(CN3CCN(C)CC3)cc2)cc1Nc1nccc(-c2cccnc2)n1 [Imatinib] | > 75
O=C(C(Cc1c[nH]c2ccccc12)NS(=O)(=O)c1ccc(Cl)cc1)N1CCCCC1 (centres undefined) | 42.4
O=C(O)c1ccc2c(c1)nc(Nc1cccc(Cl)c1)c1ccncc12 [Silmitasertib] | > 75
CCCCCc1nnc(NC(=O)c2nccnc2N)s1 | 74.2
N#C/C(=N\Nc1cc(C(F)(F)F)cc(C(F)(F)F)c1)S(=O)(=O)c1cccs1 | 99
Cc1ccc2nc3ccccc3c(N3CCN(C(=O)c4ccccc4)CC3)c2c1 | 6.15
CSc1nc2cc(Oc3cccc(Cl)c3Cl)c(Cl)cc2[nH]1 [Triclabendazole] | 6.29
CCCCc1ccc(C(=O)Nc2nccc3ccccc23)nc1 | 54.7
Cc1ccc2c(Br)cc(Br)c(OC(=O)c3ccccc3)c2n1 [Broxaldine] | 2.24
CC(C)(C)c1ccc(C(=N)NOC(=O)c2sccc2Cl)cc1 | 8.34
COC(=O)Nc1nc2ccc(C(=O)c3ccccc3)cc2[nH]1 [Mebendazole] | 5.42

SMILES | IC50 growth inhibition [µM]
Nc1ccc2ncnc(Nc3ccc(OCc4cccc(F)c4)c(Cl)c3)c2c1 | 18.7
CC(C)(C)C(O)C(Oc1ccc(-c2ccccc2)cc1)n1cncn1 (centres undefined) | 70
CC(C)c1cc(NCCCN2CCOCC2)n2ncc(-c3ccccc3)c2n1 | 25.1
O=C1N(Cc2cc3ccccc3s2)CC2CN(Cc3ccccc3)CCN12 (centres undefined) | 30.2
CCN1C(=Cc2cc(C)[n+](CCCN3CCOCC3)c(C)c2)Sc2ccccc21 | 55.3
Cc1cccc2sc(C(=O)NCc3cccc(NS(N)(=O)=O)c3)c(Cl)c12 | 70.6
CNC1CC2OC(C)(C1OC)n1c3ccccc3c3c4c(c5c6ccccc6n2c5c31)C(=O)NC4 (centres undefined) [Staurosporine] | 0.206
Cc1cc(C)n(-c2ccc(CN3c4ccc(S(N)(=O)=O)cc4CC3C)cc2)n1 (centres undefined) | 129
COc1ccc(-c2onc(C(F)(F)F)c2-c2ccc(Cl)cc2)c(O)c1 | 48.6
C[C@H]1CC[C@H](n2c3cnccc3c3cnc(Nc4ccc5c(n4)CCN(C(=O)CO)C5)nc32)CC1 [AMG 925] | > 75
Cc1nc(-c2ccccn2)nc(N2CCC(Cc3ccccc3)C2)c1Cl (centres undefined) | 21
COC(=O)C1=C(C)NC(C)=C(C(=O)OCC(C)C)C1c1ccccc1[N+](=O)[O-] (centres undefined) [Nisoldipine] | 41
FC(F)(F)c1cccc(Nc2nc3ccccc3nc2Nc2cccc(C(F)(F)F)c2)c1 | 1.6
OCCNc1nc(Oc2ccc(-c3ccccc3)cc2)nc2ccccc12 | 21.7
COCC1OC(=O)c2coc3c2C1(C)C1=C(C3=O)C2CCC(=O)C2(C)CC1OC(C)=O (centres undefined) [Wortmannin] | 27.7
NCCN(C(=O)c1ccc(Cl)cc1Cl)c1ccc(OCc2ccc(Cl)cc2)cc1 | 10.5
COc1ccc2nc3cc(Cl)ccc3c(N(C)CCc3ccc(OC)c(OC)c3)c2c1 | 27.2
Oc1c(I)cc(I)c2cccnc12 [Iodoquinol] | 5.5
CCOC(=O)NC(=O)c1ccsc1NC(=O)c1nc2ccccc2s1 | 34.6
Cc1ccc(Oc2ccc(NC(=O)CNc3ccccc3N3CCCC3=O)cc2)cc1 | 31.5
COc1ccccc1NC(=O)c1ccc(NC(=O)Cn2ncc(Cl)c(Cl)c2=O)cc1 | 0.238
Cc1nn(C(=O)Nc2cccc(C(F)(F)F)c2)c(C)c1Sc1ncccn1 | 45
CNC(=O)c1nn(C)c2c1C(C)(C)Cc1cnc(Nc3ccc(N4CCN(C)CC4)cc3)nc1-2 [milciclib maleate] | 84.1

system: Saccharomyces cerevisiae ABC16-Green Monster; experiment: growth inhibition at single dose (up to 150 µM), below the 70% cut-off for dose-response; higher = more potent; settings: 18 h; 30 °C; YPD
Method in brief: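 The entry is percent growth inhibition of drug-sensitive S. cerevisiae ABC16-Green Monster cells. After overnight growth in YPD at 30 °C, cells were diluted to OD600 0.1–0.2 and exposed to each library compound at 150 µM in 200 µl per well, in biological duplicates with untreated cultures beside them, and OD600 was read at 0 h and after 18 h at 30 °C. Any compound under 70% in both replicates was not carried to dose-response.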

SMILES | growth inhibition at single dose [%]
CCc1ccc(/C=C/c2ccc3cccc(O)c3n2)cc1 | < 70
O=C(Nc1cccc(-c2ccc(NCCCN3CCCC3)nc2)c1)c1ccccc1 | < 70
O=C(NC1CCN(c2nccc(C(F)(F)F)n2)CC1)c1cccs1 | < 70
Cc1c(C)n(CCCO)c2ncn3nc(-c4ccc(N(C)C)cc4)nc3c12 | < 70
CCOc1cccc(C2Nc3ccccc3C(=O)N2C2CC2)c1O (centres undefined) | < 70
Cc1cc(C(=O)Nc2ccc(-c3ccccc3)cc2)no1 | < 70
COc1ccc2nc(C)cc(Nc3cccc(O)c3)c2c1 | < 70
CCCCNc1nc(NC(C)(C)C)nc(NC(C)(C)C)n1 | < 70
